Here are results for two compounds from ChEMBL document CHEMBL1159027, “Microcolins A and B, new immunosuppressive peptides from the blue-green alga Lyngbya majuscula” (J Nat Prod, 1992).

The nature of data set [1]: Toxicity in mouse lymphocytes. In kind it is cell-based, Lymphocyte. The following applies: read-out: TC50 (the source's name).
In another data set the test system is Lymphocyte. Nature of the data set: Immunosuppressive activity in mouse lymphocyte assessed as suppression of two-way mixed reaction. It counts as functional, cell-based.

One may read the EC50 as the concentration that produces a half-maximal response.

With `CCCC[C@@H](C)C[C@@H](C)C(=O)N(C)[C@@H](CC(C)C)C(=O)N[C@H](C(=O)N(C)[C@H](C(=O)N1C[C@@H](O)C[C@H]1C(=O)N1C(=O)C=C[C@@H]1C)C(C)C)[C@H](C)OC(C)=O` [MICROCOLIN A], the CC50 in data set [1] was found to be 0.0226 µM. Besides, the concentration for a half-maximal effect (EC50) with Lymphocyte was 0.0015 µM.

`CCCC[C@@H](C)C[C@@H](C)C(=O)N(C)[C@@H](CC(C)C)C(=O)N[C@H](C(=O)N(C)[C@H](C(=O)N1CCC[C@H]1C(=O)N1C(=O)C=C[C@@H]1C)C(C)C)[C@H](C)OC(C)=O` [MICROCOLIN B]: the CC50 in data set [1] was 0.191 µM. In the data set on Lymphocyte, the concentration for a half-maximal effect (EC50) is 0.0427 µM.
